Consider 18 molecules from patent US12390437B2, “Itaconic acid derivatives and uses thereof intreating an inflammatory disease or a disease associated with an undesirable immune response” (Sitryx Therapeutics Limited, priority 2019, dated 2025).

Like-named read-outs stand apart in the source and are kept apart here.

Data set [1] deals with IL-1β cytokine output from THP-1s. The experiment in a line: THP-1 AlphaLISA IL-1β cytokine assay. The class given is cell-based, human. The note with it: for IC50: Homo sapiens, read-out: IL-1β (IC50). The procedure, abridged:
(§1)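 Cells are differentiated with PMA over 72 h, switched to 1% FBS medium and treated with compound for 30 min before LPS stimulation for 24 h. Nigericin is added for a final hour, and secreted cytokine is measured by AlphaLISA, with IC50 fitted from percent inhibition.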

For data set [2], the system named is IL-6 cytokine output from THP-1s. The experiment in a line: THP-1 AlphaLISA IL-6 cytokine assay. The class given is cell-based, human. The note with it: for IC50: Homo sapiens. The procedure, abridged: as §1
(In general: In Alpha technology, singlet oxygen from a donor bead excites a nearby acceptor bead.)

The next data set has as its system NQO1. The experiment in a line: NQO1 enzyme activation assay as a readout of NRF2 activation in THP-1 cells. The class given is cell-based. The note with it: Homo sapiens; for Emax: THP-1, percentage activation at top concentration, normalised to DMF (100%) and vehicle controls; for EC50: differentiated THP-1 cells, LPS, 48 hr. As for the experimental part: NQO1 Enzyme Activation Assay as a Readout of NRF2 Activation in THP-1 Cellular Background
NAD(P)H dehydrogenase [quinone] […] Induction of this gene is concomitant with the inhibition of proinflammatory cytokine transcription and suppression of the inflammatory response (Kobayashi E. H. et al., 2016). The NQO1 enzyme activation activities of compounds of formula (IW-1) were determined using a cellular based NQO1 activation assay (Abcam). The NQO1 activation assay was run in differentiated THP-1 cells (a human monocyte-like cell line) as described below. All reagents described are from Sigma-Aldrich unless specified otherwise. Compounds were prepared as 10 mM DMSO stocks.
THP-1 cells were expanded as a suspension up to 80% confluence in appropriate growth medium. Cells were harvested, suspended, treated with phorbol 12-myristate 13-acetate (PMA) and plated according to the cell density required for each plate format over a 72 hr period (37° C./5% CO2).
Following 72 hrs of THP-1 cell incubation, cellular medium was removed and replaced with fresh media. Working concentrations of compounds were prepared and pre-incubated for 30 minutes (37° C./5% CO2). Compound treatment was then applied to the PMA treated THP-1 cell plate followed by LPS treatment. A ‘low’ (DMSO vehicle only) control and ‘high’ (designated concentration of dimethyl fumarate) was applied to each plate at the point of compound treatment. Cells were subsequently incubated for a 48 hr period (37° C./5% C02) after which all NQO1 assay reagents were prepared according to the manufacturer's instructions. NQO1 extraction buffer was applied to PBS washed THP-1 cells and incubated on ice for 15 minutes to prepare THP-1 lysates for the NQO1 activity assay. THP-1 lysates were diluted 1:5 with PBS and treated with a 1:1 volume of kit prepared NQO1 Reaction Buffer. Absorbance was subsequently measured kinetically on an appropriate reader over a 6 minute period.
For activation determination, the fold change in response per well was determined by first calculating the average NQO1 activation data for the vehicle control and then dividing the individual well response by the averaged NQO1 response for the vehicle control as shown below: Fold change=(Sample value)/MeanMin Where ‘Min’=vehicle control only
The relative 50% activation concentration (EC50) was determined from the resulting fold change response curve. The maximum efficacy (Emax) was reported as the percentage activation calculated at the top concentration of compound used in the titration applied. If a full curve was unattainable preventing a correct curve fit, the Emax value was extrapolated using existing curve data. All percentage activation data were normalised to the DMF and vehicle controls, meaning the Emax represents the percentage […] achieved by a compound at a particular concentration relative to that achieved by DMF (set as the ‘High’ control and therefore representative of 100% activation).

In a further data set the test system is NRF2. The experiment in a line: NRF2 +/-GSH activation assay (DiscoverX PathHunter NRF2 translocation kit, U2OS cells). The class given is cell-based. Particulars: Homo sapiens, U2OS, Table 10, assay of Biological Example 5 (NRF2). The procedure, abridged:
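PathHunter U2OS cells, plated 24 hrs, measured NRF2 nuclear translocation by enzyme-fragment complementation luminescence after 6 hours compound exposure at 37 °C. For +GSH, compound was pre-incubated 30 minutes with GSH (6 mM working stock). EC50 from % activation normalised to dimethyl fumarate high control.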

A short description of data set [3]: Mouse pharmacokinetic study, oral administration. The class given is in vivo. The note with it: mouse plasma, Example 112 dosed orally at 100 mg/kg (Intermediate 8 = metabolite). Here is the method:
Pharmacokinetic studies were carried out in 6-8-week-old male C57BL/6 mice having free access to food and water. Intravenous dosing was conducted at 10 mg/kg (5 mL/kg; vehicle: 10% DMSO-90% (25% HP-13-CD in water)) via tail vein injection, with sampling at 3 min, 8 min, 15 min, 30 min, 1, 2, 4, 6 and 8 hours, i.e., 9 time points in total (N=3/time point), using semi-serial bleeding for plasma. Oral compound administration, via gavage, was carried out at 100 mg/kg (10 mL/kg; vehicle: 5% DMSO-95% (0.5% HPMC+0.1% Tween 80 in water)), with sampling at 5 min, 15 min, 30 min, 1, 2, 4, 6, 8 and 24 hours, i.e., 9 time points in total (N=3/time point), using semi-serial bleeding for plasma.
For both intravenous and oral routes, the mice were restrained manually at the designated time points, with ca. 110 μL of blood being taken into K2EDTA tubes via the facial vein. Blood samples were put on ice and centrifuged to obtain plasma samples from which the concentration at each time point was measured by LC-MS/MS.

Setting [4] is: THP-1, PMA-differentiated THP-1 cells, LPS 24 hr then Nigericin 1 hour.
[5] abbreviates: PMA-differentiated THP-1 cells, LPS 24 hr then Nigericin 1 hour.
The mark [6] stands for this setting: Table 10, assay of Biological Example 1 (THP-1).

`C=C(CC(=O)OCCCCCCCC)C(=O)OCCC(=O)N(C)C` [Example 6, 1-(3-(dimethylamino)-3-oxopropyl) 4-octyl 2-methylenesuccinate]: the IC50 was found to be 12.8 µM in data set [1] (setting [4]) and 12.1 µM in data set [2] (setting [5]). This molecule yielded an Emax with NQO1 of 154%. In the data set with NQO1, this molecule returned an EC50 of 30.6 µM.

Regarding `C=C(CC(=O)OCCCC)C(=O)OCCS(C)(=O)=O` [Example 7, 4-butyl 1-(2-(methylsulfonyl)ethyl) 2-methylenesuccinate], the IC50 in data set [1] (setting [4]) is 16.7 µM. In data set [2] (setting [5]), the 50% inhibitory concentration (IC50) turned out to be 12 µM. In the data set with NQO1, the Emax is 78% and the EC50 came to 7.3 µM.

In the case of `C=C(CC(=O)OCCCC)C(=O)OCCC#N` [Example 8, 1-(2-cyanoethyl) 4-butyl 2-methylenesuccinate], in the data set on NQO1, the Emax stood at 152% and a half-maximal effect (EC50) was put at 35.4 µM.

Regarding `C=C(CC(=O)OC)C(=O)OCCC#N` [Example 10, 1-(2-cyanoethyl) 4-methyl 2-methylenesuccinate], the IC50 in data set [1] (setting [4]) came out at 27.9 µM; in data set [2] (setting [5]) it was 7.6 µM. The same molecule registered an Emax in the data set on NQO1 of 107%. In the data set on NQO1, this molecule returned an EC50 of 15.2 µM.

With `C=C(CC(=O)OCCCCCC)C(=O)OCCC#N` [Example 11, 1-(2-cyanoethyl) 4-hexyl 2-methylenesuccinate], the IC50 in data set [1] (setting [4]) is 3.7 µM. Also, in the data set on NQO1, the Emax is 124% and it took 10.4 µM to reach a half-maximal effect (EC50).

Turning to `C=C(CC(=O)OC)C(=O)OCCS(C)(=O)=O` [Example 12, 4-methyl 1-(2-(methylsulfonyl)ethyl) 2-methylenesuccinate], the half-inhibitory concentration (IC50) in data set [1] (setting [4]) is 28.2 µM. Besides, the IC50 in data set [2] (setting [5]) came out at 11.3 µM. In the data set with NQO1, the Emax came to 88% and the EC50 was determined as 22.7 µM.

As for `C=C(CC(=O)OCCCCCCCC)C(=O)OCCOC(F)(F)F` [Example 13, 4-octyl 1-(2-(trifluoromethoxy)ethyl) 2-methylenesuccinate], in the data set on NQO1, the Emax turned out to be 45% and the response was half-maximal at 2.8 µM (EC50).

For the molecule `C=C(CC(=O)OCCCCCCCC)C(=O)OCCS(=O)(=O)N(C)C` [Example 16, 1-(2-(N,N-dimethylsulfamoyl)ethyl) 4-octyl 2-methylenesuccinate], the results for the IC50 in data set [1] (setting [4]) and in data set [2] (setting [5]) were 1.7 µM and 1.1 µM, respectively. The same molecule came in with an Emax in the data set on NQO1 of 108%. The molecule also returned an EC50 in the data set with NQO1 of 19.8 µM.

As for `C=C(CC(=O)OCCCCCCCC)C(=O)OCCN(C)C` [Example 17, 1-(2-(dimethylamino)ethyl) 4-octyl 2-methylenesuccinate], the IC50 in data set [1] (setting [4]) amounted to 1.5 µM. For the same molecule, it took 1.4 µM to reach half-maximal inhibition in data set [2] (setting [5]) (IC50). In the data set on NQO1, this molecule registered an Emax of 68% and an EC50 of 2.6 µM.

In the data set on NQO1, `C=C(CC(=O)OCCCCCCCC)C(=O)OCCCS(C)(=O)=O` [Example 18, 1-(3-(methylsulfonyl)propyl) 4-octyl 2-methylenesuccinate] gave an Emax of 67% and an EC50 of 5.4 µM.

Turning to `C=C(CC(=O)OCCCCCCCC)C(=O)OC(C)CS(C)(=O)=O` (stereo not shown) [Example 19, 1-(1-(methylsulfonyl)propan-2-yl) 4-octyl 2-methylenesuccinate], the IC50 in data set [1] (setting [4]) came out at 3.6 µM; in data set [2] (setting [5]), 1.9 µM. For the same molecule, the Emax with NQO1 was 44%. Besides, the EC50 in the data set with NQO1 came out at 51 µM.

Regarding `C=C(CC(=O)OCCCC)C(=O)OC1COC1` [Example 37, 4-butyl 1-(oxetan-3-yl) 2-methylenesuccinate], in the data set with NQO1, the Emax was 105% and the EC50 was 21 µM.

On to `C=C(CC(=O)OC1CCCCCCC1)C(=O)OC` [Example 41, 4-cyclooctyl 1-methyl 2-methylenesuccinate], for which, in the data set on NQO1, the Emax was determined as 129% and it took 38.1 µM to reach a half-maximal effect (EC50).

With `C=C(CC(=O)OCCCCCCCC)C(=O)OC` [Example 42, 1-methyl 4-octyl 2-methylenesuccinate], in the data set with NQO1, the Emax came to 66% and it took 24.3 µM to reach a half-maximal effect (EC50).

As for `C=C(CC(=O)OC1CCC1)C(=O)OC1CCC1` [Example 43, dicyclobutyl 2-methylenesuccinate], in the data set with NQO1, the Emax was 150% and the EC50 worked out at 170 µM.

In the data set on NQO1, `C=C(CC(=O)OC1COC1)C(=O)OC1COC1` [Example 44, di(oxetan-3-yl) 2-methylenesuccinate] returned an Emax of 217% and an EC50 of 64.6 µM.

In the data set on NQO1, `C=C(CC(=O)OCCCCCCCC)C(=O)OC1CCC1` [Example 45, 1-cyclobutyl 4-octyl 2-methylenesuccinate] returned an Emax of 72% and an EC50 of 1.6 µM.

Turning to `C=C(CC(=O)O[C@H](C)CCCCCC)C(=O)O` [Intermediate 8, (R)-2-methylene-4-(octan-2-yloxy)-4-oxobutanoic acid], the IC50 in data set [1] (THP-1, Table 10, assay of Biological Example 1 (THP-1)) came out at 56.7 µM; in data set [2] (setting [6]), 23.7 µM. The “IL-1β (IC50)” value in data set [1] (setting [6]) is “improved cytokine-lowering potencies compared to dimethyl itaconate”. The “IL-6 (IC50)” value in data set [2] (setting [6]) is “improved cytokine-lowering potencies compared to dimethyl itaconate”. In the data set on NRF2 (read-out: EC50), the EC50 stood at 20.4 µM. Further, the maximal effect (Emax) in the data set on NRF2 (read-out: Emax) was 165%. For the same molecule, the concentration at 0.083 h in data set [3] (male, C57BL/6, po, time 0.083 h, read-out: Example 112 and Intermediate 8 concentrations following oral administration) was 18500 ng/mL. Further, the concentration at 0.25 h in data set [3] (male, C57BL/6, po, time 0.25 h, read-out: Example 112 and Intermediate 8 concentrations following oral administration) was 19800 ng/mL. Moreover, in data set [3] (male, C57BL/6, po, time 0.5 h, read-out: Example 112 and Intermediate 8 concentrations following oral administration), the concentration at 0.5 h was found to be 12800 ng/mL. Further, the concentration at 1 h in data set [3] (male, C57BL/6, po, time 1 h, read-out: Example 112 and Intermediate 8 concentrations following oral administration) was 4710 ng/mL. In addition, in data set [3] (male, C57BL/6, po, time 2 h, read-out: Example 112 and Intermediate 8 concentrations following oral administration), the concentration at 2 h worked out at 2160 ng/mL. Further, the concentration at 4 h in data set [3] (male, C57BL/6, po, time 4 h, read-out: Example 112 and Intermediate 8 concentrations following oral administration) was 719 ng/mL. For the same molecule, the concentration at 6 h in data set [3] (male, C57BL/6, po, time 6 h, read-out: Example 112 and Intermediate 8 concentrations following oral administration) is 614 ng/mL. Moreover, in data set [3] (male, C57BL/6, po, time 8 h, read-out: Example 112 and Intermediate 8 concentrations following oral administration), the concentration at 8 h was 132 ng/mL. For the same molecule, the “Example 112 and Intermediate 8 concentrations following oral administration” value in data set [3] (time 24 h) is given as “BQL”.

For orientation: IC50 means the concentration needed to halve the response being measured. One may read the Emax as the size of the effect at its maximum, as opposed to the concentration needed. One may read the EC50 as the midpoint of the concentration-response curve.
